The record followed here is US20070191414A1, “Novel isoamido-substituted hydroxy-6-phenylphenanthridines” (Altana Pharma AG, priority 2004, published 2007).

For this test, the target named is T1, PDE4B2 (Homo sapiens, UniProt Q07343).
T1 construct: made in house; host or cells: SF21 insect cells (baculovirus; virus prepared in SF9 cells)
In words: Inhibition of PDE4B2 activity, modified [3H]cAMP SPA (scintillation proximity assay). Type of test: biochemical. The note with it: recombinant PDE4B2 expressed in SF21 insect cells; 0.5 μM cAMP; 15 min at 37° C.; read-out: Inhibition of the PDE4 activity, −log IC50(mol/l) (converted). As to the method:
The PDE4B2 (GB no. M97515) was a gift of Prof. M. Conti (Stanford University, USA). It was amplified from the original plasmid (pCMV5) via PCR with primers. Rb9 (5′- […] -3′) and Rb 10 (5′- […] -3′) and cloned into the pCR-Bac vector (Invitrogen, Groningen, NL).
The recombinant baculovirus was prepared by means of homologous recombination in SF9 insect cells. The expression plasmid was cotransfected with Bac-N-Blue (Invitrogen, Groningen, NL) or Baculo-Gold DNA (Pharmingen, Hamburg) using a standard protocol (Pharmingen, Hamburg). Wt virus-free recombinant virus supernatant was selected using plaque assay methods. After that, high-titre virus supernatant was prepared by amplifying 3 times. PDE was expressed in SF21 cells by infecting 2×10^6 cells/ml with an MOI (multiplicity of infection) between 1 and 10 in serum-free SF900 medium (Life Technologies, Paisley, UK). […]
The SF21 insect cells were resuspended, at a concentration of approx. 10^7 cells/ml, in ice-cold (4° C.) homogenization buffer (20 mM Tris, pH 8.2, containing the following additions: 140 mM NaCl, 3.8 mM KCl, 1 mM EGTA, 1 mM MgCl2, 10 mM β-mercaptoethanol, 2 mM benzamidine, 0.4 mM Pefablock, 10 μM leupeptin, 10 μM pepstatin A, 5 μM trypsin inhibitor) and disrupted by ultrasonication. […] The protein content was determined by the Bradford method (BioRad, Munich) using BSA as the standard. […]
(Scintillation proximity formats need no separation of bound from free tracer.)

Molecules are shown by their SMILES.

T1 sequence (Q07343 1-564 isoform Q07343-2): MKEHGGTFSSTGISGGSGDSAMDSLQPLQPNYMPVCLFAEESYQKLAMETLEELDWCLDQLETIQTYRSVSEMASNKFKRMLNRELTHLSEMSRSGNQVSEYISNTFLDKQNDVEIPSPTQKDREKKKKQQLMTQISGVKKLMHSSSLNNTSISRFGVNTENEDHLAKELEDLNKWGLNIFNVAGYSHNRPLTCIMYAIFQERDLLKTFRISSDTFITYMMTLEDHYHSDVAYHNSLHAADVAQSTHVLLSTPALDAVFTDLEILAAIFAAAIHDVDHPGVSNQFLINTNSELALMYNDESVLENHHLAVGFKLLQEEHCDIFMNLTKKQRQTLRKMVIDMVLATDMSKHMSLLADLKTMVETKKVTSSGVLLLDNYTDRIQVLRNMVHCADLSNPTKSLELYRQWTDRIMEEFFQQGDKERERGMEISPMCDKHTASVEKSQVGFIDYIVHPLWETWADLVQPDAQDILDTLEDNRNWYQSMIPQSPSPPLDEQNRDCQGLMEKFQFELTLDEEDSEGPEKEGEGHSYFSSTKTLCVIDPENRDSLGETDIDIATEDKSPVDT

Turning to `CCOc1cc2c(cc1OC)C(c1cccc(NC(=O)CCNC(N)=O)c1)=N[C@@H]1CC[C@@H](O)C[C@H]21` (racemic) [Compound 19, N-[3-((2RS,4aRS,10bRS)-9-Ethoxy-2-hydroxy-8-methoxy-1,2,3,4,4a,10b-hexahydro-phenanthridin-6-yl)-phenyl]-3-ureido-propionamide], the IC50 is 1.48 nM.
